Measurements: patent US20220289794A1, “SYNTHETIC ANTIMICROBIAL PEPTIDES” (priority 2019, published 2022)

Tests used:
[1] = tested on: Klebsiella pneumoniae (ATCC BAA-1705); conditions: Table 16, Gram-negative panel
[2] = tested on: P. aeruginosa (ATCC BAA-1744); test: Broad-spectrum activity against Gram-Negative bacteria (MIC); assay type: cell-based; conditions: Table 16, Gram-negative panel
[3] = tested on: Escherichia coli (ATCC 25922); conditions: E. coli ATCC 25922
[4] = tested on: S. aureus ATCC 29213; conditions: S. aureus ATCC 29213
[5] = tested on: B. cereus (ATCC-13061); test: Broad-spectrum activity against Gram-Positive bacteria (MIC); assay type: cell-based; set-up: unit not given here
[6] = tested on: Enterococcus faecium ATCC 700221; conditions: E. faecium ATCC 700221
[7] = tested on: Enterococcus faecium ATCC 27270; conditions: E. faecium ATCC 27270
[8] = tested on: Pseudomonas aeruginosa (ATCC 27883); conditions: P. aeruginosa ATCC 27883
[9] = tested on: A. baumannii (ATCC BAA-1605); test: Broad-spectrum activity against Gram-Negative bacteria (MIC); assay type: cell-based; conditions: Table 16, Gram-negative panel
[10] = tested on: Enterococcus faecalis ATCC 29212; conditions: E. faecalis ATCC 29212
[11] = tested on: Methicillin-resistant Staphylococcus aureus MRSA (ATCC BAA-1556); conditions: MRSA ATCC BAA-1556
[12] = tested on: E. coli (ATCC BAA-2452); test: Broad-spectrum activity against Gram-Negative bacteria (MIC); assay type: cell-based; conditions: Table 16, Gram-negative panel
[13] = tested on: Klebsiella pneumoniae ATCC 13883; conditions: Table 16, Gram-negative panel
[14] = tested on: Enterococcus faecalis ATCC 51575; conditions: E. faecalis ATCC 51575
[15] = tested on: P. aeruginosa (ATCC 10145); test: Broad-spectrum activity against Gram-Negative bacteria (MIC); assay type: cell-based; conditions: Table 16, Gram-negative panel
[16] = tested on: Streptococcus pneumoniae ATCC 49619; conditions: S. pneumoniae ATCC 49619
[17] = tested on: Streptococcus pneumoniae ATCC 51938; conditions: S. pneumoniae ATCC 51938
[18] = tested on: B. subtilis (ATCC-6633); test: Broad-spectrum activity against Gram-Positive bacteria (MIC); assay type: cell-based; set-up: unit not given here

Substance | MIC K. pneumonia (ATCC BAA-1705) [1] | MIC P. aeruginosa (ATCC BAA-1744) [2] | MIC E. coli ATCC 25922 [3] | MIC S. aureus ATCC 29213 [4] | Broad-spectrum activity B. cereus (ATCC-13061) [5] | Broad-spectrum activity E. faecium (ATCC 700221) [6] | Broad-spectrum activity E. faecium (ATCC 27270) [7] | MIC P. aeruginosa ATCC 27883 [8] | MIC A. baumannii (ATCC BAA-1605) [9] | Broad-spectrum activity E. faecalis (ATCC 29212) [10] | MIC MRSA ATCC BAA-1556 [11] | MIC E. coli (ATCC BAA-2452) [12] | MIC K. pneumonia (ATCC 13883) [13] | Broad-spectrum activity E. faecalis (ATCC 51575) [14] | MIC P. aeruginosa (ATCC 10145) [15] | Broad-spectrum activity S. pneumoniae (ATCC 49619) [16] | Broad-spectrum activity S. pneumoniae (ATCC 51938) [17] | Broad-spectrum activity B. subtilis (ATCC-6633) [18]
c[Arg-Arg-Arg-Arg-Dip-dip-Dip] [IFX-061] | 25 µg/mL | 12.5 µg/mL | 12.5 µg/mL | 3.1 µg/mL | 3.1 | 3.1 | 3.1 | 12.5 µg/mL | 6.2 µg/mL | 6.2 | 1.5 µg/mL | 12.5 µg/mL | 50 µg/mL | 12.5 | 25 µg/mL | 50 | 12.5 | 1.5
c[Arg-arg-Arg-Arg-Dip-Dip-Dip] [IFX-065] | 12.5 µg/mL | 12.5 µg/mL | 12.5 µg/mL | 3.1 µg/mL | 3.1 | 3.1 | 3.1 | 12.5 µg/mL | 6.2 µg/mL | 6.2 | 1.5 µg/mL | 6.2 µg/mL | 50 µg/mL | 12.5 | 12.5 µg/mL | 25 | 12.5 | 1.5
c[arg-arg-arg-arg-dip-Trp-dip] [IFX-095] | 12.5 µg/mL | 25 µg/mL | 12.5 µg/mL | 3.1 µg/mL | 3.1 | 6.2 | 3.1 | 12.5 µg/mL | 12.5 µg/mL | 6.2 | 3.1 µg/mL | 25 µg/mL | 50 µg/mL | 12.5 | 25 µg/mL | 50 | 12.5 | 1.5
c[arg-arg-arg-arg-dip-trp-dip] [IFX-101] | 25 µg/mL | 25 µg/mL | 12.5 µg/mL | 3.1 µg/mL | 6.2 | 12.5 | 3.1 | 25 µg/mL | 12.5 µg/mL | 12.5 | 3.1 µg/mL | 25 µg/mL | > 50 µg/mL | 12.5 | 50 µg/mL | 50 | 12.5 | 1.5
c[arg-arg-arg-arg-Dip-Trp-Dip] [IFX-099] | 25 µg/mL | 25 µg/mL | 6.2 µg/mL | 1.5 µg/mL | 3.1 | 6.2 | 3.1 | 12.5 µg/mL | 12.5 µg/mL | 6.2 | 1.5 µg/mL | 25 µg/mL | 50 µg/mL | 12.5 | 25 µg/mL | 25 | 12.5 | 1.5
c[Arg-arg-Arg-arg-dip-Trp-dip] [IFX-097] | 25 µg/mL | 50 µg/mL | 12.5 µg/mL | 3.1 µg/mL | 6.2 | 6.2 | 3.1 | 12.5 µg/mL | 12.5 µg/mL | 6.2 | 3.1 µg/mL | 25 µg/mL | > 50 µg/mL | 12.5 | 50 µg/mL | 50 | 25 | 1.5
c[Arg-Arg-Arg-Arg-dip-Dip-Dip] [IFX-062] | 12.5 µg/mL | 12.5 µg/mL | 12.5 µg/mL | 3.1 µg/mL | 3.1 | 3.1 | 3.1 | 6.2 µg/mL | 6.2 µg/mL | 6.2 | 3.1 µg/mL | 6.2 µg/mL | 50 µg/mL | 12.5 | 25 µg/mL | 50 | 12.5 | 1.5
c[Arg-Arg-Arg-Arg-dip-trp-dip] [IFX-100] | 25 µg/mL | 25 µg/mL | 12.5 µg/mL | 1.5 µg/mL | 3.1 | 6.2 | 3.1 | 12.5 µg/mL | 12.5 µg/mL | 6.2 | 1.5 µg/mL | 25 µg/mL | > 50 µg/mL | 12.5 | 50 µg/mL | 25 | 12.5 | 1.5
c[Arg-arg-Arg-Arg-Dip-Trp-Dip] [IFX-093] | 12.5 µg/mL | 25 µg/mL | 12.5 µg/mL | 3.1 µg/mL | 6.2 | 6.2 | 6.2 | 12.5 µg/mL | 12.5 µg/mL | 12.5 | 3.1 µg/mL | 6.2 µg/mL | 50 µg/mL | 12.5 | 25 µg/mL | 50 | 25 | 1.5
